Test system: primary HSCs

Cc1sc2c(c1C)C(c1ccc(Cl)cc1)=N[C@@H](CC(=O)OC(C)(C)C)c1nnc(C)n1-2 [JQ1, (S)-tert-butyl 2-(4-(4-chlorophenyl)-2,3,9-trimethyl-6H-thieno[3,2-f][1,2,4]triazolo[4,3-a][1,4]diazepin-6-yl)acetate]
Ccnb2 value_2 (mRNA-Seq, sample Day_6_JQ1): 22.7753
Ccnf value_2 (mRNA-Seq, sample Day_6_JQ1): 11.7934
Cdc45 value_2 (mRNA-Seq, sample Day_6_JQ1): 7.419
Cdca3 value_2 (mRNA-Seq, sample Day_6_JQ1): 31.4087
Cdk1 value_2 (mRNA-Seq, sample Day_6_JQ1): 28.779
Cdkn2c value_2 (mRNA-Seq, sample Day_6_JQ1): 16.1063
Cend1 value_2 (mRNA-Seq, sample Day_6_JQ1): 7.615
Cenpe value_2 (mRNA-Seq, sample Day_6_JQ1): 9.129
Cenph value_2 (mRNA-Seq, sample Day_6_JQ1): 8.899
Chaf1a value_2 (mRNA-Seq, sample Day_6_JQ1): 16.8473
Ckap2l value_2 (mRNA-Seq, sample Day_6_JQ1): 18.5683
Ckb value_2 (mRNA-Seq, sample Day_6_JQ1): 310.111
Cks1b value_2 (mRNA-Seq, sample Day_6_JQ1): 113.98
Colec11 value_2 (mRNA-Seq, sample Day_6_JQ1): 68.8593
Cpt1c value_2 (mRNA-Seq, sample Day_6_JQ1): 30.5415
Ctnnbip1 value_2 (mRNA-Seq, sample Day_6_JQ1): 14.2922
Cyb5r3 value_2 (mRNA-Seq, sample Day_6_JQ1): 256.005
Cyp1b1 value_2 (mRNA-Seq, sample Day_6_JQ1): 100.635
D2Ertd750e value_2 (mRNA-Seq, sample Day_6_JQ1): 10.3027
Dact3 value_2 (mRNA-Seq, sample Day_6_JQ1): 26.3749
Dag1 value_2 (mRNA-Seq, sample Day_6_JQ1): 162.916
Dcbld2 value_2 (mRNA-Seq, sample Day_6_JQ1): 73.5335
Dcxr value_2 (mRNA-Seq, sample Day_6_JQ1): 36.0469
Ddr2 value_2 (mRNA-Seq, sample Day_6_JQ1): 63.2059
Diap3 value_2 (mRNA-Seq, sample Day_6_JQ1): 10.7413
Dlgap5 value_2 (mRNA-Seq, sample Day_6_JQ1): 10.9428
Dzip3 value_2 (mRNA-Seq, sample Day_6_JQ1): 8.399
E2f1 value_2 (mRNA-Seq, sample Day_6_JQ1): 21.0746
Elovl5 value_2 (mRNA-Seq, sample Day_6_JQ1): 65.5058
Eno2 value_2 (mRNA-Seq, sample Day_6_JQ1): 9.68
Ephb3 value_2 (mRNA-Seq, sample Day_6_JQ1): 16.6667
Ephx1 value_2 (mRNA-Seq, sample Day_6_JQ1): 132.832
Evc value_2 (mRNA-Seq, sample Day_6_JQ1): 10.4125
Ext2 value_2 (mRNA-Seq, sample Day_6_JQ1): 87.8458
Fam171b value_2 (mRNA-Seq, sample Day_6_JQ1): 12.8947
Fbxo5 value_2 (mRNA-Seq, sample Day_6_JQ1): 11.9069
Fignl1 value_2 (mRNA-Seq, sample Day_6_JQ1): 12.5326
Foxm1 value_2 (mRNA-Seq, sample Day_6_JQ1): 15.7609
Fscn1 value_2 (mRNA-Seq, sample Day_6_JQ1): 385.037
Gas1 value_2 (mRNA-Seq, sample Day_6_JQ1): 80.3077
Gmnn value_2 (mRNA-Seq, sample Day_6_JQ1): 19.8433
Gpm6b value_2 (mRNA-Seq, sample Day_6_JQ1): 19.7607
Gpx1 value_2 (mRNA-Seq, sample Day_6_JQ1): 332.885
Gstt3 value_2 (mRNA-Seq, sample Day_6_JQ1): 14.4369
Gyg value_2 (mRNA-Seq, sample Day_6_JQ1): 82.2854
Hadh value_2 (mRNA-Seq, sample Day_6_JQ1): 56.1898
Hand2 value_2 (mRNA-Seq, sample Day_6_JQ1): 110.598
Hmmr value_2 (mRNA-Seq, sample Day_6_JQ1): 17.0843
Id3 value_2 (mRNA-Seq, sample Day_6_JQ1): 1063.75
Ildr2 value_2 (mRNA-Seq, sample Day_6_JQ1): 11.4416
Kif2c value_2 (mRNA-Seq, sample Day_6_JQ1): 11.8118
Kif4 value_2 (mRNA-Seq, sample Day_6_JQ1): 7.332
Kif11 value_2 (mRNA-Seq, sample Day_6_JQ1): 10.8132
Kif20b value_2 (mRNA-Seq, sample Day_6_JQ1): 7.299
Kif22 value_2 (mRNA-Seq, sample Day_6_JQ1): 14.9542
Lamb2 value_2 (mRNA-Seq, sample Day_6_JQ1): 41.1365
Lhfp value_2 (mRNA-Seq, sample Day_6_JQ1): 371.966
Lphn1 value_2 (mRNA-Seq, sample Day_6_JQ1): 20.1469
Melk value_2 (mRNA-Seq, sample Day_6_JQ1): 7.467
Mfge8 value_2 (mRNA-Seq, sample Day_6_JQ1): 379.144
Mki67 value_2 (mRNA-Seq, sample Day_6_JQ1): 27.8603
Mmp11 value_2 (mRNA-Seq, sample Day_6_JQ1): 36.1215
Mras value_2 (mRNA-Seq, sample Day_6_JQ1): 15.4481
Mrc2 value_2 (mRNA-Seq, sample Day_6_JQ1): 111.626
Msx1 value_2 (mRNA-Seq, sample Day_6_JQ1): 5.962
Ndc80 value_2 (mRNA-Seq, sample Day_6_JQ1): 8.604
Nkd1 value_2 (mRNA-Seq, sample Day_6_JQ1): 16.9471
Nuf2 value_2 (mRNA-Seq, sample Day_6_JQ1): 9.227
Oat value_2 (mRNA-Seq, sample Day_6_JQ1): 213.454
Osbpl5 value_2 (mRNA-Seq, sample Day_6_JQ1): 41.3593
Osr1 value_2 (mRNA-Seq, sample Day_6_JQ1): 16.6329
Pbx1 value_2 (mRNA-Seq, sample Day_6_JQ1): 48.4716
Pld3 value_2 (mRNA-Seq, sample Day_6_JQ1): 190.597
Plxdc2 value_2 (mRNA-Seq, sample Day_6_JQ1): 26.1768
Prc1 value_2 (mRNA-Seq, sample Day_6_JQ1): 30.6759
Ptgr1 value_2 (mRNA-Seq, sample Day_6_JQ1): 25.0296
Pxmp4 value_2 (mRNA-Seq, sample Day_6_JQ1): 17.7124
Pygb value_2 (mRNA-Seq, sample Day_6_JQ1): 42.1403
Racgap1 value_2 (mRNA-Seq, sample Day_6_JQ1): 22.85
Rarb value_2 (mRNA-Seq, sample Day_6_JQ1): 70.6683
S100a6 value_2 (mRNA-Seq, sample Day_6_JQ1): 1608.42
Scrn1 value_2 (mRNA-Seq, sample Day_6_JQ1): 7.911
Sipa1l1 value_2 (mRNA-Seq, sample Day_6_JQ1): 28.6555
Slit2 value_2 (mRNA-Seq, sample Day_6_JQ1): 14.8622
Smc2 value_2 (mRNA-Seq, sample Day_6_JQ1): 19.557
Smc4 value_2 (mRNA-Seq, sample Day_6_JQ1): 33.8803
Snap47 value_2 (mRNA-Seq, sample Day_6_JQ1): 103.523
Spc24 value_2 (mRNA-Seq, sample Day_6_JQ1): 8.494
Spry1 value_2 (mRNA-Seq, sample Day_6_JQ1): 44.5222
St5 value_2 (mRNA-Seq, sample Day_6_JQ1): 35.2195
Tacc3 value_2 (mRNA-Seq, sample Day_6_JQ1): 18.1794
Tfdp2 value_2 (mRNA-Seq, sample Day_6_JQ1): 10.5854
Tinagl1 value_2 (mRNA-Seq, sample Day_6_JQ1): 326.013
Tmem53 value_2 (mRNA-Seq, sample Day_6_JQ1): 17.4035
Tmsb10 value_2 (mRNA-Seq, sample Day_6_JQ1): 1117.74
Trim59 value_2 (mRNA-Seq, sample Day_6_JQ1): 27.2401
Tro value_2 (mRNA-Seq, sample Day_6_JQ1): 7.307
Trp53inp2 value_2 (mRNA-Seq, sample Day_6_JQ1): 99.8045
Twist1 value_2 (mRNA-Seq, sample Day_6_JQ1): 19.9784
Uhrf1 value_2 (mRNA-Seq, sample Day_6_JQ1): 16.7743
Vgll3 value_2 (mRNA-Seq, sample Day_6_JQ1): 95.3643
Wdr35 value_2 (mRNA-Seq, sample Day_6_JQ1): 9.874
Wt1 value_2 (mRNA-Seq, sample Day_6_JQ1): 29.0084
Zbtb7c value_2 (mRNA-Seq, sample Day_6_JQ1): 7.895
number of genes upregulated during HSC activation (more than 900) that are suppressed (primary HSCs, days 3 and 6 vs day 1, JQ1 500 nM): more than 400 genes
induction of key marker genes Col1a1, Acta2, Col1a2 and Des during HSC activation (primary HSCs, JQ1 500 nM, mRNA-Seq and qRT-PCR): drastically abolished

Reference: patent US20180325914A1, “INCREASING STORAGE OF VITAMIN A, VITAMIN D AND/OR LIPIDS” (Salk Institute for Biological Studies, priority 2014, published 2018)
